Data published in ChEMBL document CHEMBL1201862, “PubChem BioAssay data set” (2004).
Active and inactive are the calls of the source.

How the values were obtained:
cells [1] = assay type: functional, cell-based
cells [2] = assay type: functional, cell-based; remark: listed apart in the source
Cytochrome P450 2C9 = Cytochrome P450 2C9 (Homo sapiens, UniProt P11712)
Leucine aminopeptidase = molecular target: T1, Leucine aminopeptidase (Plasmodium falciparum 3D7, UniProt Q8IL11); test: P. falciparum M17LAP inhibitors, primary screen, biochemical, fluorogenic H-Leu-NHMec substrate, 1536-well (AID 1619); assay type: functional
T1 sequence (Q8IL11 whole entry): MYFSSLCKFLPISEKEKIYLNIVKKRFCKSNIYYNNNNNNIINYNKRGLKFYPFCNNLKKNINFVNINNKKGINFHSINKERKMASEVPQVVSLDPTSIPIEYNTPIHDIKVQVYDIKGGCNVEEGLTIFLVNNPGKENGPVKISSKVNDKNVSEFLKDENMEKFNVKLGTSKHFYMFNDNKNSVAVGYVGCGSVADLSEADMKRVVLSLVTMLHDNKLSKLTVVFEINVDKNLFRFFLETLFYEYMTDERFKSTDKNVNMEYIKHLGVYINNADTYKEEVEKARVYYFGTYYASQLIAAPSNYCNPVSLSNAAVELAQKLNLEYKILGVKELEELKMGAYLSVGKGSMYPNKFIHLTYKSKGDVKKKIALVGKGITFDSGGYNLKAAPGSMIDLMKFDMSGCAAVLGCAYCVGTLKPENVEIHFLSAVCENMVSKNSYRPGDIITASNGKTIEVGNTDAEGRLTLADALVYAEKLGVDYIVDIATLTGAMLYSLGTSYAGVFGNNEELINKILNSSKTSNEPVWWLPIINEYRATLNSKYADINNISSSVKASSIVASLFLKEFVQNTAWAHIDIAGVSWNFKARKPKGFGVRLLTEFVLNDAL

[3] = Shn3 3'UTR reporter inhibitors, dose response, cell-based, Clone20 osteoblasts, firefly luciferase, cherry-picked (AID 624132); assay type: functional;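 note: firefly luciferase luminescence from reporter carrying the Shn3 3'UTR in osteoblasts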
[4] = HepG2 cell cytotoxicity, dose response, cytotoxicity control for Shn3 inhibitor project, CellTiter-Glo, cherry-picked (AID 624134); assay type: functional, cell-based
[5] = control 3'UTR Renilla luciferase suppression, dose response, counter-screen for Shn3 inhibitor project, cell-based, Clone20-Shn3RL, cherry-picked (AID 624133); assay type: functional
[6] = molecular target: T2, Ubiquitin-conjugating enzyme E2 N (Homo sapiens, UniProt P61088); assay type: functional;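 note: Dose-response confirmation in a TR-FRET assay detecting UBC13-driven polyubiquitin chain formation, inhibition measured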
T2 sequence (P61088 whole entry): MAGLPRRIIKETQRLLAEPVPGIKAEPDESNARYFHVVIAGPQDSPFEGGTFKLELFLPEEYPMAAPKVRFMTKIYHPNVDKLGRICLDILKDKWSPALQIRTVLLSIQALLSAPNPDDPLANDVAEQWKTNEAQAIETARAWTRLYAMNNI

[7] = NIH-3T3 fibroblast cytotoxicity, dose response, cytotoxicity control, cell-based, fluorescence, Alamar Blue, secondary assay (AID 2327); assay type: functional;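 note: NIH-3T3 mouse fibroblasts cultured with fluconazole at 8 µg/mL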
[8] = C. albicans growth with fluconazole, confirmation, fluorescence, retest (AID 2467); assay type: functional, cell-based
cells [9] = assay type: functional
[10] = molecular target: T3, Calpain-2 catalytic subunit (Sus scrofa, UniProt P43367); test: pig calpain II inhibitor potency, dose response, biochemical, fluorogenic peptide substrate (AID 1420); assay type: functional
T3 sequence (P43367 whole entry): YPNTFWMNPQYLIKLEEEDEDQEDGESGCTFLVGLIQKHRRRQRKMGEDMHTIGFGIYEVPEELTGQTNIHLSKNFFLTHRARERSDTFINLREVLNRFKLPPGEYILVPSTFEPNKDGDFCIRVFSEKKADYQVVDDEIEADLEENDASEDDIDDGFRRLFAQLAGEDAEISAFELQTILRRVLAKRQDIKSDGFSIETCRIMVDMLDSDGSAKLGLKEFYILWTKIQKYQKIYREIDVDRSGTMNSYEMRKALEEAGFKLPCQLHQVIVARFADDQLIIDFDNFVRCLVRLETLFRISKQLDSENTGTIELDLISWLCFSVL

[11] = growth suppression of PTEN-null colon cells, dose response, cell-based, HCT116 PTEN knockout (AID 1047); assay type: functional;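 note: HCT116 colon tumor cells with PTEN knocked out; cells exposed to compound for 60 hours before readout; potency for loss of cell viability measured by luminescence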
[12] = growth suppression of beta-catenin-knockout colon cells, dose response, cell-based, HCT116, human colon tumor (AID 1045); assay type: functional;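 note: HCT116 colon tumor cells with beta catenin knocked out; cells exposed to compound for 60 hours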

Cytochrome P450 2C9, sequence (P11712 whole entry): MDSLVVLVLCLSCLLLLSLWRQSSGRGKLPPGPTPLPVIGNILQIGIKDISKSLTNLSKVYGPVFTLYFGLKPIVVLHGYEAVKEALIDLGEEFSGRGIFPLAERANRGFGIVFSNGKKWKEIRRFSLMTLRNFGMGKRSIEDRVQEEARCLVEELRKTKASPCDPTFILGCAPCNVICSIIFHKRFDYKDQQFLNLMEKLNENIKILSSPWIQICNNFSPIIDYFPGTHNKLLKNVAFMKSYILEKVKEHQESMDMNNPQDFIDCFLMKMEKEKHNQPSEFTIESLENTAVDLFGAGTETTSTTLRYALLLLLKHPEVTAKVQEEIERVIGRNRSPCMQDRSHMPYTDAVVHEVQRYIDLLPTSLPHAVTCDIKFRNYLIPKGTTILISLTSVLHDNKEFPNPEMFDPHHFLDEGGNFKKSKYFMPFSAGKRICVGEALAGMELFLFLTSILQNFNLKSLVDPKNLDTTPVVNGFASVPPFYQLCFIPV

SMILES: Cc1nn(C)cc1S(=O)(=O)NCc1ccc2c(c1)OCO2
- EC50 (cells [1]): > 350 µM (not active)
- EC50 (cells [2]): > 350 µM (not active)

SMILES: N#CCCn1c(=O)c(-c2ccc(Cl)cc2)nc2cnc(N3CCOCC3)nc21
- AC50 (Cytochrome P450 2C9): inconclusive

SMILES: CCc1ccc(C(=O)CSc2n[nH]c(C)n2)cc1
- IC50 (Leucine aminopeptidase): 63.4 µM (active)

SMILES: CC(=O)Nc1ccc(Nc2nc(C)c([N+](=O)[O-])c(Nc3ccc(NC(C)=O)cc3)n2)cc1
- EC50 (cells [1]): > 350 µM (not active)
- EC50 (cells [2]): > 350 µM (not active)

SMILES: CCC(=O)c1ccc(OCc2ccc(C(=O)c3ccccc3)cc2)cc1
- AC50 [3]: 3.29 µM (active)
- AC50 [4]: 26.3 µM (active)
- AC50 [5]: 5.86 µM (active)

SMILES: COc1ccc(CN2C(=O)c3cccc4cccc2c34)cc1F
- IC50 [6]: > 20 µM (inactive)

SMILES: CC(C)=NOC(=O)c1c(C)noc1-c1snnc1C
- EC50 (cells [1]): > 350 µM (not active)
- EC50 (cells [2]): > 350 µM (not active)

SMILES: O=C(NCC(=O)N(Cc1ccco1)C(C(=O)NC1CCCCC1)c1cccnc1)c1cccs1 (stereo not given)
- EC50 (cells [1]): > 350 µM (not active)
- EC50 (cells [2]): > 350 µM (not active)

SMILES: CC(=O)c1cc(C#N)c(N2CCCC2)nc1C
- EC50 [7]: > 160 µM (inactive)
- EC50 [8]: > 38 µM (not active)

SMILES: Cc1sc(NC(=O)C2CC=CCC2C(=O)O)c(C(=O)OC(C)C)c1C (stereo not given)
- IC50 (Leucine aminopeptidase): 24.1 µM (active)

SMILES: CCCN1C(=O)S/C(=C\c2ccc(N3CCOCC3)o2)C1=O
- IC50 (cells [9]): 21.9 µM (active)
- AC50 [3]: 6.37 µM (active)
- AC50 [4]: > 70 µM (inactive)
- AC50 [5]: 25.8 µM (active)

SMILES: O=C(c1ccc(Cl)cc1Cl)N1CCC(c2nc(O)c3nnn(Cc4ccco4)c3n2)CC1
- IC50 [10]: > 50 µM (not active)

SMILES: O=C(CSc1nc(-c2ccco2)cc(C(F)(F)F)n1)Nc1ccc(C(=O)N2CCCCC2)cc1
- EC50 [11]: 62.7 µM (active)
- EC50 [12]: 28.8 µM (active)
- AC50 [3]: 2.87 µM (active)
- AC50 [4]: 51 µM (active)
- AC50 [5]: 0.774 µM (active)

SMILES: CCOc1ccc(Nc2nc(Cc3nnc(SCC(=O)O)o3)cs2)cc1
- IC50 (Leucine aminopeptidase): 7.08 µM (active)

SMILES: COc1ccc(C(=O)N(CN2CCCC2=O)c2ccc(C)cc2)cc1
- EC50 [7]: 66 µM (active)
- EC50 [8]: > 38 µM (not active)

SMILES: COc1ccccc1[C@@H]1C(c2cccc(C)c2)=NN(c2ccccc2)[C@H]1C(=O)N1CCOC1=O
- IC50 [6]: > 20 µM (inactive)

SMILES: CCCCN(CC)CCNC(=O)CNC(=O)Cn1ccc2ccccc2c1=O
- IC50 [10]: 46.5 µM (not active)

SMILES: OC1(c2cn(Cc3ccccc3)nn2)CCCCC1
- IC50 (Leucine aminopeptidase): 61.5 µM (active)

SMILES: OCc1cc(O)c(OCc2ccccc2)cn1
- EC50 (cells [1]): > 350 µM (not active)
- EC50 (cells [2]): > 350 µM (not active)
